Laboratory results from ChEMBL document CHEMBL4828725 (Eur J Med Chem, 2021).

Tests used:
[1] = Inhibition of rice alpha-glucosidase using p-nitrophenyl glycoside as substrate assessed as release of p-nitrophenol measured by spectrometric assay; parameters: species or system Oryza sativa; details: read-out: IC50
[2] = Inhibition of rat intestinal maltase using maltose as substrate assessed as release of D-glucose measured by spectrometric assay
[3] = molecular target: T1, Sucrase-isomaltase, intestinal (Rattus norvegicus, UniProt P23739); experiment: Inhibition of rat intestinal sucrase using p-nitrophenyl glycoside as substrate assessed as release of p-nitrophenol measured by spectrometric assay; details: read-out: IC50
[4] = molecular target: T1, Sucrase-isomaltase, intestinal; experiment: Inhibition of rat intestinal isomaltase using p-nitrophenyl glycoside as substrate assessed as release of p-nitrophenol measured by spectrometric assay
[5] = Inhibition of almond beta-glucosidase using p-nitrophenyl glycoside as substrate assessed as release of p-nitrophenol measured by spectrometric assay; parameters: species or system Prunus dulcis
Prunus dulcis = experiment: Inhibition of almond beta-glucosidase using p-nitrophenyl glycoside as substrate assessed as release of p-nitrophenol at 1000 uM measured by spectrometric assay relative to control
[6] = Inhibition of bovine liver beta-glucosidase using p-nitrophenyl glycoside as substrate assessed as release of p-nitrophenol measured by spectrometric assay; parameters: species or system Bos taurus
Bos taurus [7] = organism: Bos taurus; experiment: Inhibition of bovine liver beta-glucosidase using p-nitrophenyl glycoside as substrate assessed as release of p-nitrophenol at 1000 uM measured by spectrometric assay relative to control; assay type: tissue-based
Alpha-galactosidase = Alpha-galactosidase (Coffea arabica, UniProt Q42656); experiment: Inhibition of coffee beans alpha-galactosidase using p-nitrophenyl glycoside as substrate assessed as release of p-nitrophenol measured by spectrometric assay
[8] = Inhibition of bovine liver beta-galactosidase using p-nitrophenyl glycoside as substrate assessed as release of p-nitrophenol measured by spectrometric assay; assay type: tissue-based, Bos taurus
Bos taurus [9] = organism: Bos taurus; experiment: Inhibition of bovine liver beta-galactosidase using p-nitrophenyl glycoside as substrate assessed as release of p-nitrophenol at 1000 uM measured by spectrometric assay relative to control
[10] = Inhibition of jack bean alpha-mannosidase using p-nitrophenyl glycoside as substrate assessed as release of p-nitrophenol measured by spectrometric assay; parameters: species or system Canavalia ensiformis
[11] = molecular target: T2, Alpha-mannosidase (Canavalia ensiformis) (UniProt C0HJB3); experiment: Inhibition of jack bean alpha-mannosidase using p-nitrophenyl glycoside as substrate assessed as release of p-nitrophenol at 1000 uM measured by spectrometric assay relative to control
T2 sequence (whole entry): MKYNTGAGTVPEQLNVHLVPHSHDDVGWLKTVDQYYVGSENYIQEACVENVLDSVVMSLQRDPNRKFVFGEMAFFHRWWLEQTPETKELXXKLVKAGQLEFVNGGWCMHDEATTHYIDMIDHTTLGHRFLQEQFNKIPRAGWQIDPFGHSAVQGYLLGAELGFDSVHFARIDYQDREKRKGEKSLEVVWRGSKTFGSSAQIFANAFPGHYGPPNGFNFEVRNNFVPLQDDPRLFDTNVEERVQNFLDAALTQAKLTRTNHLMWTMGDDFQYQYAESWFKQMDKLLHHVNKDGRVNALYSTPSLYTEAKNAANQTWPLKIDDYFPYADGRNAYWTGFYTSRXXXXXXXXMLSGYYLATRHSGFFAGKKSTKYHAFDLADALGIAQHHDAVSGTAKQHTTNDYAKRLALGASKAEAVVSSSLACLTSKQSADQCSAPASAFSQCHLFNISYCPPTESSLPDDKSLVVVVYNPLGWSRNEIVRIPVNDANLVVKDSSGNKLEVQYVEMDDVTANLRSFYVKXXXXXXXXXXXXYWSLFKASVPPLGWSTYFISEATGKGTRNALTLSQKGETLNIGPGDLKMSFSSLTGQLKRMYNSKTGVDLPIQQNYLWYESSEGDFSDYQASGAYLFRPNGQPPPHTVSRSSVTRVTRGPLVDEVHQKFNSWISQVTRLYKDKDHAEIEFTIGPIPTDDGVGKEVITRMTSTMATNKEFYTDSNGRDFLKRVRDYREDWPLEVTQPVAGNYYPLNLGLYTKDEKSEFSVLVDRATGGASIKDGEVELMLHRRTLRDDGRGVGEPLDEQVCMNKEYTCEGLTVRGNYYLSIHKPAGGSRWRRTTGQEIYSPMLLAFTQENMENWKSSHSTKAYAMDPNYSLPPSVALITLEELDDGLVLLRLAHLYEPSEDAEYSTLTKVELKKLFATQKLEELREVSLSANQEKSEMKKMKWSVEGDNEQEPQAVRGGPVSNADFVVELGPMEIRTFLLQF

[12] = Inhibition of snail beta-mannosidase using p-nitrophenyl glycoside as substrate assessed as release of p-nitrophenol measured by spectrometric assay; parameters: species or system Helix pomatia
Helix pomatia = experiment: Inhibition of snail beta-mannosidase using p-nitrophenyl glycoside as substrate assessed as release of p-nitrophenol at 1000 uM measured by spectrometric assay relative to control
[13] = molecular target: T3, Tissue alpha-L-fucosidase (Bos taurus, UniProt Q2KIM0); experiment: Inhibition of bovine kidney alpha-L-fucosidase using p-nitrophenyl glycoside as substrate assessed as release of p-nitrophenol measured by spectrometric assay
T3 sequence (Q2KIM0 whole entry): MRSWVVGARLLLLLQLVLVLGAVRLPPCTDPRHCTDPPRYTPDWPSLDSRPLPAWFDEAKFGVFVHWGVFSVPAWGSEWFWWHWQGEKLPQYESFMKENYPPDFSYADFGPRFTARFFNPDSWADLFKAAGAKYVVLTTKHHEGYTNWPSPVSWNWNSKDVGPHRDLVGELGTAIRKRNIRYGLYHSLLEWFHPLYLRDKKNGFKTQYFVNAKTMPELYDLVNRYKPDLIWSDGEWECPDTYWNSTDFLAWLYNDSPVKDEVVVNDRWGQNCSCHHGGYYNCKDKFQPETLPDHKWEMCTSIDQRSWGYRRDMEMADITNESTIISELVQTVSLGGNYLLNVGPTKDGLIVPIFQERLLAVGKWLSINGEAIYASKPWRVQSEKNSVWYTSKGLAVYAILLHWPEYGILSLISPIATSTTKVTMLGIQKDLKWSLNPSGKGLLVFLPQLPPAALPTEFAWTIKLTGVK

[14] = molecular target: T4, Tissue alpha-L-fucosidase (Bos taurus) (UniProt Q2KIM0); experiment: Inhibition of bovine kidney alpha-L-fucosidase using p-nitrophenyl glycoside as substrate assessed as release of p-nitrophenol at 1000 uM measured by spectrometric assay relative to control; assay type: tissue-based
T4 sequence (whole entry): T3 sequence (Q2KIM0 whole entry)

[15] = Inhibition of porcine kidney alpha-trehalase using p-nitrophenyl glycoside as substrate assessed as release of p-nitrophenol measured by spectrometric assay; parameters: species or system Sus scrofa
Sus scrofa = organism: Sus scrofa; experiment: Inhibition of porcine kidney alpha-trehalase using p-nitrophenyl glycoside as substrate assessed as release of p-nitrophenol at 1000 uM measured by spectrometric assay relative to control
[16] = Inhibition of Aspergillus niger amyloglucosidase using p-nitrophenyl glycoside as substrate assessed as release of p-nitrophenol measured by spectrometric assay
Aspergillus niger = experiment: Inhibition of Aspergillus niger amyloglucosidase using p-nitrophenyl glycoside as substrate assessed as release of p-nitrophenol at 1000 uM measured by spectrometric assay relative to control
[17] = Inhibition of Penicillium decumbens alpha-L-rhamnosidase using p-nitrophenyl glycoside as substrate assessed as release of p-nitrophenol measured by spectrometric assay
Penicillium decumbens = experiment: Inhibition of Penicillium decumbens alpha-L-rhamnosidase using p-nitrophenyl glycoside as substrate assessed as release of p-nitrophenol at 1000 uM measured by spectrometric assay relative to control
Beta-glucuronidase = Beta-glucuronidase (Escherichia coli (strain K12), UniProt P05804); experiment: Inhibition of Escherichia coli beta-glucuronidase using p-nitrophenyl glycoside as substrate assessed as release of p-nitrophenol measured by spectrometric assay
[18] = molecular target: Beta-glucuronidase (Escherichia coli (strain K12)) (UniProt P05804); experiment: Inhibition of Escherichia coli beta-glucuronidase using p-nitrophenyl glycoside as substrate assessed as release of p-nitrophenol at 1000 uM measured by spectrometric assay relative to control
[19] = molecular target: Alpha-galactosidase (Coffea arabica) (UniProt Q42656); experiment: Inhibition of coffee beans alpha-galactosidase using p-nitrophenyl glycoside as substrate assessed as release of p-nitrophenol at 1000 uM measured by spectrometric assay relative to control
Chain of Alpha-galactosidase (Coffea arabica) (Q42656 16-378 limits assumed): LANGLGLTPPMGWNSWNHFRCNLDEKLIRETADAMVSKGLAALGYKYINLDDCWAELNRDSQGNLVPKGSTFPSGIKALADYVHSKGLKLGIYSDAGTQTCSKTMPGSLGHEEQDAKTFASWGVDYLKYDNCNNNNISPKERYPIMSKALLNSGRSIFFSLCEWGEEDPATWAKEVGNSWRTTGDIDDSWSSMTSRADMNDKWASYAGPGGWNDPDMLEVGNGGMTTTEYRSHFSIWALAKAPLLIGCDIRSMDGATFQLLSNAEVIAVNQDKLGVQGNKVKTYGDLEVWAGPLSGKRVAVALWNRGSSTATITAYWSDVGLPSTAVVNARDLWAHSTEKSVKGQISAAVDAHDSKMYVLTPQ

Chain of Beta-glucuronidase (P05804 whole entry): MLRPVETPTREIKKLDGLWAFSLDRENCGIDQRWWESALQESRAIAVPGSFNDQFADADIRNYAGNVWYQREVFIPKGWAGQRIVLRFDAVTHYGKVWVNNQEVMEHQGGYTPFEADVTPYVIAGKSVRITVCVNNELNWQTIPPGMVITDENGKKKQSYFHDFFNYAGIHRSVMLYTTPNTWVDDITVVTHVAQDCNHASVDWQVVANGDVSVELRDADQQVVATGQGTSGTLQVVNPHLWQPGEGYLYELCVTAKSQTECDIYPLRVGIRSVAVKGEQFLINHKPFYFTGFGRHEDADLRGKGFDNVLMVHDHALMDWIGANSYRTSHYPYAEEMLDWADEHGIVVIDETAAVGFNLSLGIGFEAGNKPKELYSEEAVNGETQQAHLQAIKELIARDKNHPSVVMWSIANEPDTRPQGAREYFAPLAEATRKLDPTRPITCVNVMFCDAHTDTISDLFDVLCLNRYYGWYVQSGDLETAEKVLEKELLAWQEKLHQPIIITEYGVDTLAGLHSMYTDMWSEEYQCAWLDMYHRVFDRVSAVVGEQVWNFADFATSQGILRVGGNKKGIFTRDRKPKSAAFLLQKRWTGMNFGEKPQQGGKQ
Chain of Beta-glucuronidase (Escherichia coli (strain K12)) (P05804 whole entry, looked up): as the sequence (P05804 whole entry) above
Chain of Alpha-galactosidase (Q42656 whole entry): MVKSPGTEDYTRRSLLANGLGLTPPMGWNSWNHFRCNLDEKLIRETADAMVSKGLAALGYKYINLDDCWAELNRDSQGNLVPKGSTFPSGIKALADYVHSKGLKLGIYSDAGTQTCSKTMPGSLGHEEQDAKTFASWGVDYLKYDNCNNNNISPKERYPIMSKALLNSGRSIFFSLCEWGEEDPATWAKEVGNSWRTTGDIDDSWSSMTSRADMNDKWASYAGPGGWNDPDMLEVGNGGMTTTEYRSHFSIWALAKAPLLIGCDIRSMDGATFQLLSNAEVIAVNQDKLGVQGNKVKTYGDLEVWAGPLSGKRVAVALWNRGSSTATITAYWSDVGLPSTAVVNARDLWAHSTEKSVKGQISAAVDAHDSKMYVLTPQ
T1 sequence (P23739 1-1013 limits assumed): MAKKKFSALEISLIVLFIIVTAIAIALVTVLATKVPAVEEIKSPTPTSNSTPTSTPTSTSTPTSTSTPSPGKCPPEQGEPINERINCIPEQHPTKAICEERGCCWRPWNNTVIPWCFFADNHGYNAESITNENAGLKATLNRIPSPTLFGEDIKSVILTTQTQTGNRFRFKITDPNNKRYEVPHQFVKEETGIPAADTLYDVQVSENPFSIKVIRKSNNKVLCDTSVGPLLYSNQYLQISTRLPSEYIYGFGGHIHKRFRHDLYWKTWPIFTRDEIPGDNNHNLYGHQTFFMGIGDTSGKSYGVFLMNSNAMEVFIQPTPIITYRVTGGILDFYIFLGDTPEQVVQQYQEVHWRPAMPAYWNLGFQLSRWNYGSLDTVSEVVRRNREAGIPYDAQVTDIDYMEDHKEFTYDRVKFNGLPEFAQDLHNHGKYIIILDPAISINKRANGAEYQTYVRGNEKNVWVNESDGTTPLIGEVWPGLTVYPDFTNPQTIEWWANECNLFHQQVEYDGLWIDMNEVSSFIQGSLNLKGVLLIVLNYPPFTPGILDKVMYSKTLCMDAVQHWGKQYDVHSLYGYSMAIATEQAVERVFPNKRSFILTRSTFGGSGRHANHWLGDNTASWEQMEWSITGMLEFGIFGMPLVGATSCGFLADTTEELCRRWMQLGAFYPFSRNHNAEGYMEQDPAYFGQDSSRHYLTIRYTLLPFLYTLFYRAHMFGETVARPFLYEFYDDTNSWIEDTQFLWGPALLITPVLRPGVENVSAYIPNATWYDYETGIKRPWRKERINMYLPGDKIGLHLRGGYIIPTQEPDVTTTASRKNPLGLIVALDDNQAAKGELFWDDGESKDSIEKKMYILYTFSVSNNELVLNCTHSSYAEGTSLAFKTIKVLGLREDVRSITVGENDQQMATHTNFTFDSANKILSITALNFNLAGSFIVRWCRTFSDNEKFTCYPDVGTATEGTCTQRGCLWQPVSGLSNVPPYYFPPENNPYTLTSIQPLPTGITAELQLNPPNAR
T1 sequence (P23739 1014-1841 limits assumed): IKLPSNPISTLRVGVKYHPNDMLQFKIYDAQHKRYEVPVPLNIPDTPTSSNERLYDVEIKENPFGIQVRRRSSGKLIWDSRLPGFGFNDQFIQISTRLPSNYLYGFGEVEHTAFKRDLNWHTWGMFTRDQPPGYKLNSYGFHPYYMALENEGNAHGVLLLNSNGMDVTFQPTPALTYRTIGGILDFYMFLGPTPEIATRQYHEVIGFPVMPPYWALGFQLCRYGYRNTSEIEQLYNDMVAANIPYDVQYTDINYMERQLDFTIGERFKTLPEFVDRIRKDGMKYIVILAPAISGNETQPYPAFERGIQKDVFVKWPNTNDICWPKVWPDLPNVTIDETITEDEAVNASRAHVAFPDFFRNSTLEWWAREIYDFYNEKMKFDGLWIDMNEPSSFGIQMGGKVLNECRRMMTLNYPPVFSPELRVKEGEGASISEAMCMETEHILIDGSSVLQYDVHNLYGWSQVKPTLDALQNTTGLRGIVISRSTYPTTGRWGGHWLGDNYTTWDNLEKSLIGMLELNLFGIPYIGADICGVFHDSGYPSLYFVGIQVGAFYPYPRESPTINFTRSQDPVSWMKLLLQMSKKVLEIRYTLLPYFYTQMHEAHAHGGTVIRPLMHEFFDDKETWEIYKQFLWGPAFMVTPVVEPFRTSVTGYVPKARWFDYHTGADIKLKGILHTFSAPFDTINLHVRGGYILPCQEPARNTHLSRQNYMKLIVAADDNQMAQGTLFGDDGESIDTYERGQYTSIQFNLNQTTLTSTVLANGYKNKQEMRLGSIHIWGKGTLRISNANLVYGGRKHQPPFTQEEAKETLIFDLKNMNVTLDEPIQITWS

SMILES | IC50 [1] [nM] | IC50 [2] [nM] | IC50 [3] [nM] | IC50 ([4]; read-out: IC50) [nM] | IC50 [5] | inhibition (Prunus dulcis) [%] | IC50 [10] | inhibition [11] [%] | IC50 [12] | inhibition (Helix pomatia) [%] | IC50 [13] | inhibition [14] [%] | IC50 [15] | inhibition (Sus scrofa) [%] | IC50 [16] | inhibition (Aspergillus niger) [%] | IC50 [17] | inhibition (Penicillium decumbens) [%] | IC50 (Beta-glucuronidase) | inhibition [18] [%] | further results
CCCCC[C@]1(CO)NC[C@H](O)[C@@H](O)[C@@H]1O.Cl | 68 | 23 | 230 | 700 | Not Active | 18.8 | Not Active | 5.5 | Not Active | 4 | Not Active | 12.4 | Not Active | 10.6 | Not Active | 0.83 | Not Active | 0 | Not Active | 10.8 | IC50 [6]: Not Active; inhibition (Bos taurus [7]): 8%; IC50 (Alpha-galactosidase; read-out: IC50): 83000 nM; IC50 [8]: Not Active; inhibition (Bos taurus [9]): 16.1%
CCCCCC[C@]1(CO)NC[C@H](O)[C@@H](O)[C@@H]1O.Cl | 37 | 34 | 140 | 550 | Not Active | 11.3 | Not Active | 5.5 | Not Active | 0 | Not Active | 4.3 | Not Active | 11.7 | Not Active | 5.4 | Not Active | 0.6 | Not Active | 21.1 | IC50 [6]: Not Active; inhibition (Bos taurus [7]): 10.8%; IC50 (Alpha-galactosidase; read-out: IC50): 76000 nM; IC50 [8]: Not Active; inhibition (Bos taurus [9]): 15.5%
CCCCCCCCC[C@@]1(CO)NC[C@H](O)[C@@H](O)[C@@H]1O.Cl | 3300 | 9500 | 42000 | 122000 | Not Active | 32.9 | Not Active | 0 | Not Active | 0.6 | Not Active | 1.5 | Not Active | 0 | Not Active | 2.7 | Not Active | 3.5 | Not Active | 38.1 | IC50 ([6]; read-out: IC50): 213000 nM; IC50 (Alpha-galactosidase): Not Active; inhibition [19]: 15.3%; IC50 ([8]; read-out: IC50): 29000 nM
CCCCCCCC[C@]1(CO)NC[C@H](O)[C@@H](O)[C@@H]1O.Cl | 29 | 19 | 120 | 340 | Not Active | 15.7 | Not Active | 4.6 | Not Active | 0.5 | Not Active | 6.6 | Not Active | 23 | Not Active | 5.9 | Not Active | 5.7 | Not Active | 12 | IC50 [6]: Not Active; inhibition (Bos taurus [7]): 14.3%; IC50 (Alpha-galactosidase; read-out: IC50): 98000 nM; IC50 [8]: Not Active; inhibition (Bos taurus [9]): 35.2%
CC[C@]1(CO)NC[C@H](O)[C@@H](O)[C@@H]1O.Cl | 97 | 110 | 100 | 1200 | Not Active | 5.6 | Not Active | 1.6 | Not Active | 1.1 | Not Active | 2.1 |  |  | Not Active | 0 | Not Active | 0 | Not Active | 3.6 | IC50 [6]: Not Active; inhibition (Bos taurus [7]): 15.3%; IC50 (Alpha-galactosidase): Not Active; inhibition [19]: 30.1%; IC50 [8]: Not Active; inhibition (Bos taurus [9]): 18.4%; IC50 ([15]; read-out: IC50): 94000 nM
CCCC[C@@]1(CO)NC[C@H](O)[C@@H](O)[C@@H]1O.Cl | 85000 | 110000 | 242000 |  | Not Active | 6.2 | Not Active | 4.4 | Not Active | 3 | Not Active | 16 | Not Active | 0 | Not Active | 3.8 | Not Active | 22.8 | Not Active |  | IC50 [4]: Not Active; IC50 ([6]; read-out: IC50): 149000 nM; IC50 (Alpha-galactosidase): Not Active; inhibition [19]: 12.5%; IC50 ([8]; read-out: IC50): 52000 nM
